# Reference: the supplement of paper PMC10307832
# Tests used:
# Assay in all cases: relative viability (nuclei count vs DMSO), 5 days (fraction); higher = more cells survive
# [1] = compound: CC1=NC=CC(=C1)C2=CC=C(C=C2)CC(=O)NC3=CC=C(C=C3)C4=CN=CC=C4 [Wnt-C59] + CC(=O)Nc1cccc(-n2c(=O)n(C3CC3)c(=O)c3c(Nc4ccc(I)cc4F)n(C)c(=O)c(C)c32)c1 [Trametinib] (partner 0.02 µM)
# Procedure, shortened: (§1)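 Relative viability divides the nuclei count in treated wells by that in vehicle wells. Lung cancer cell lines were seeded in 1536-well plates, dosed by pin tool the next day, and fixed and stained after 5 days in one step with final 0.05% Triton X-100, 1% formaldehyde and 1 ug/ml Hoechst. Dosing was a single drug or a fixed anchor-drug dose plus five library-drug doses (not always all listed) in √10 steps, and values are medians of duplicate plates imaged at 4×.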
# [2] = compound: CS(=O)(=O)CCNCc1ccc(-c2ccc3ncnc(Nc4ccc(OCc5cccc(F)c5)c(Cl)c4)c3c2)o1 [Lapatinib] + CCNC(=O)c1noc(-c2cc(C(C)C)c(O)cc2O)c1-c1ccc(CN2CCOCC2)cc1 [Luminespib] (partner 0.01 µM)
# Procedure, shortened: as §1
# [3] = compound: CC1=NC=CC(=C1)C2=CC=C(C=C2)CC(=O)NC3=CC=C(C=C3)C4=CN=CC=C4 [Wnt-C59] + O=C(CCCCCCC(=O)Nc1ccccc1)NO [Vorinostat] (partner 1 µM)
# Procedure, shortened: as §1
# [4] = compound: CC1=NC=CC(=C1)C2=CC=C(C=C2)CC(=O)NC3=CC=C(C=C3)C4=CN=CC=C4 [Wnt-C59] + C[C@@H](Oc1cc(-c2cnn(C3CCNCC3)c2)cnc1N)c1c(Cl)ccc(F)c1Cl [Crizotinib] (partner 1 µM)
# Procedure, shortened: as §1
Cell Line,relative viability ([1]; first compound 0.001 µM),relative viability ([1]; first compound 0.01 µM),relative viability ([1]; first compound 0.03162 µM),relative viability ([1]; first compound 0.1 µM),relative viability ([2]; first compound 0.02 µM),relative viability ([2]; first compound 0.06325 µM),relative viability ([2]; first compound 0.2 µM),relative viability ([2]; first compound 0.6325 µM),relative viability ([2]; first compound 2 µM),relative viability ([3]; first compound 0.001 µM),relative viability ([3]; first compound 0.01 µM),relative viability ([3]; first compound 0.03162 µM),relative viability ([3]; first compound 0.1 µM),relative viability ([4]; first compound 0.001 µM),relative viability ([4]; first compound 0.01 µM),relative viability ([4]; first compound 0.03162 µM),relative viability ([4]; first compound 0.1 µM)
201T,0.698,0.747,0.733,0.698,1.02,0.976,1.03,1.03,1.04,0.979,0.991,1.03,0.983,1.01,1.02,1.01,1.03
A549,–,–,–,–,–,–,–,–,–,–,–,–,–,0.802,0.676,0.752,0.676
A-427,0.749,0.746,0.81,0.876,–,0.751,0.96,0.959,1.1,0.851,0.878,0.874,0.895,0.982,0.798,0.962,0.905
ABC-1,–,–,–,–,–,–,0.509,–,0.64,1.05,1.07,1.07,1.18,1.03,1.21,1.11,0.868
BEN,1.13,0.995,1,1.04,–,0.564,0.229,0.402,0.417,0.581,0.523,0.675,0.579,0.897,0.84,1.02,0.923
CAL-12T,0.327,0.378,0.367,0.381,–,0.236,0.477,0.235,0.35,0.808,0.82,0.975,0.805,0.699,0.654,0.89,0.555
COR-L23,0.626,0.648,0.684,0.56,0.715,0.688,0.731,0.646,0.567,0.457,0.452,0.624,0.454,0.653,0.567,0.637,0.67
COR-L 105,0.444,0.433,0.448,0.488,0.592,0.698,0.857,0.716,0.6,0.991,0.71,0.877,0.857,0.879,0.808,0.853,0.76
Calu-6,–,–,–,–,–,–,–,–,–,–,–,–,–,0.787,0.779,0.883,0.825
ChaGo-K-1,0.845,0.875,0.96,0.841,0.636,0.448,0.603,0.563,0.57,0.751,0.781,0.689,0.774,1.08,–,1.21,1.09
EBC-1,–,–,–,–,–,–,–,–,–,–,–,–,–,0.191,0.188,0.204,0.224
EKVX,0.366,–,0.324,0.319,0.712,0.804,0.767,0.853,0.447,0.805,0.585,0.574,0.557,1.06,1.09,0.879,0.874
EMC-BAC-2,0.797,0.697,0.793,0.713,1.09,0.998,1.19,1.06,1.08,0.421,0.412,0.409,0.751,0.642,0.649,0.636,0.678
EPLC-272H,0.275,0.277,0.316,0.298,–,–,0.44,0.205,0.359,0.394,0.561,0.512,0.396,0.955,0.8,0.874,0.53
H3255,0.664,0.495,0.683,0.506,0.471,0.676,0.879,0.805,0.757,0.79,0.71,0.95,0.86,0.86,0.959,0.942,0.751
HARA,0.785,0.691,0.933,0.879,–,0.58,0.54,0.499,0.399,0.729,0.533,0.511,0.481,1.04,0.642,1.15,1.06
HCC-15,0.417,0.371,0.404,0.359,–,0.425,0.303,0.293,0.235,0.851,0.817,1.05,0.892,0.891,0.82,0.919,0.85
HCC-44,1.11,0.969,0.996,1.09,–,0.716,1.14,0.965,1.06,1.16,1.02,1.13,1.12,0.878,0.78,0.753,0.757
HCC-78,0.691,0.746,0.908,0.854,–,–,–,–,–,0.439,0.407,0.476,0.484,0.343,0.284,0.303,0.339
HCC-366,0.398,0.4,0.385,0.341,–,–,–,–,–,0.338,0.2,0.309,0.335,0.45,0.541,0.605,0.472
HCC-827,0.545,0.477,0.48,0.547,0.74,0.8,0.629,0.624,0.253,0.901,0.922,1.01,0.77,1.01,0.979,0.942,0.975
HOP-62,0.347,0.366,0.352,0.347,0.839,0.949,0.932,0.869,1.01,0.639,0.576,0.508,0.637,0.973,0.916,0.974,0.789
IA-LM,–,–,–,–,–,–,–,–,–,0.934,0.906,–,0.939,0.919,0.746,0.632,0.705
LC-2-ad,0.904,0.874,0.905,0.9,–,0.865,1.2,0.988,0.942,0.699,0.714,0.742,0.688,0.45,0.442,0.553,0.279

Cell Line,relative viability ([1]; first compound 0.001 µM),relative viability ([1]; first compound 0.01 µM),relative viability ([1]; first compound 0.03162 µM),relative viability ([1]; first compound 0.1 µM),relative viability ([2]; first compound 0.02 µM),relative viability ([2]; first compound 0.06325 µM),relative viability ([2]; first compound 0.2 µM),relative viability ([2]; first compound 0.6325 µM),relative viability ([2]; first compound 2 µM),relative viability ([3]; first compound 0.001 µM),relative viability ([3]; first compound 0.01 µM),relative viability ([3]; first compound 0.03162 µM),relative viability ([3]; first compound 0.1 µM),relative viability ([4]; first compound 0.001 µM),relative viability ([4]; first compound 0.01 µM),relative viability ([4]; first compound 0.03162 µM),relative viability ([4]; first compound 0.1 µM)
LCLC-97TM1,0.216,0.201,0.22,0.193,–,–,0.676,0.765,0.875,0.733,0.765,0.901,0.706,0.292,0.344,0.545,0.283
LCLC-103H,0.716,0.667,0.667,0.713,0.954,0.82,0.877,0.891,0.852,0.887,0.743,0.762,0.806,1.08,0.977,1,1.02
LK-2,0.767,0.869,0.713,0.817,–,–,0.174,0.211,0.177,0.441,0.295,0.3,0.233,0.228,0.238,0.212,0.259
LOU-NH91,0.817,0.788,0.802,0.792,0.368,0.305,0.364,0.346,0.362,0.868,0.864,0.886,0.978,0.732,0.65,0.738,0.766
LU99A,0.583,0.474,0.569,0.506,0.253,0.248,0.285,0.251,0.244,0.486,0.474,0.484,0.442,0.577,0.538,0.622,0.531
LXF-289,0.617,0.629,0.73,0.632,0.709,0.459,0.603,0.603,0.65,0.72,0.766,0.783,0.801,0.822,0.768,0.817,0.78
NCI-H23,0.396,0.346,0.385,0.432,–,–,0.197,0.215,0.196,0.499,0.541,0.737,0.59,0.521,0.463,0.537,0.599
NCI-H322M,0.581,0.484,0.412,0.504,0.883,0.6,0.758,0.753,0.633,0.86,0.816,0.746,0.93,0.819,0.937,0.877,0.841
NCI-H358,0.129,0.119,0.143,0.1,–,0.159,–,0.255,0.173,0.803,0.589,0.8,0.65,0.608,0.525,0.436,0.625
NCI-H441,0.474,0.451,0.465,0.434,–,0.299,0.278,0.282,0.322,0.786,0.867,0.806,0.887,0.731,0.906,0.805,0.615
NCI-H460,0.0894,0.111,0.191,0.156,0.0268,0.035,0.0347,0.0312,0.026,0.688,0.711,0.743,0.648,0.996,0.961,0.878,0.689
NCI-H520,0.709,0.743,0.598,0.643,0.21,0.226,0.26,0.242,0.233,0.742,0.683,0.686,0.634,0.915,0.83,0.831,0.716
NCI-H522,0.786,0.741,0.829,0.752,–,1.09,–,1.03,0.794,0.899,0.954,0.759,0.873,–,–,–,–
NCI-H1299,–,–,–,–,–,–,–,–,–,–,–,–,–,1.02,0.562,0.952,0.953
NCI-H1395,0.931,0.995,1.04,1.02,0.849,0.761,0.706,0.599,0.663,0.724,0.675,0.564,1.1,–,–,–,–
NCI-H1563,–,–,–,–,0.538,0.509,0.537,0.461,0.474,–,–,–,–,0.812,0.802,0.965,0.797
NCI-H1623,–,–,–,–,0.429,0.437,–,0.456,0.408,–,–,–,–,–,–,–,–
NCI-H1648,0.564,0.45,0.63,0.491,–,–,–,–,–,0.421,0.369,0.655,0.364,–,–,–,–
NCI-H1703,–,–,–,–,–,–,–,–,–,–,–,–,–,0.988,0.735,0.585,0.64
NCI-H1792,0.395,0.348,0.526,0.352,–,–,0.413,0.403,0.255,–,–,–,–,0.914,1.02,1.04,1.06
NCI-H1793,0.495,0.408,0.385,0.425,–,0.33,0.174,0.158,0.143,0.626,0.548,0.81,0.74,–,–,–,–
NCI-H2342,0.786,0.757,0.91,0.797,0.579,0.607,0.665,0.692,0.703,0.706,0.747,0.855,0.732,–,–,–,–
SW 900,0.809,0.745,0.793,0.6,–,0.176,0.17,0.164,0.175,0.475,0.343,0.479,0.488,–,–,–,–
